Assay results published in patent US10758524B2, “Compositions and methods for selectively depleting senescent cells” (BioVentures, LLC, priority 2014, dated 2020).

Tests used:
Type in all cases: cell-based
[1] = test system: Normal WI38 cells; test: Cell viability of normal WI38 cells at 72 h (LD50); settings: for LD50 (normal): normal WI38 cells, Table 1; for CC50: Homo sapiens, WI-38, 72 h, read-out: LD50 non-senescent cells (NSC)
Method: (§1) Normal WI38 cells (FIG. 1A), IR-induced senescent cells (FIG. 1B) and replicative senescent cells (FIG. 1C) were incubated with increasing concentrations of PL. At 72 hours post-treatment cell viability was measured. […] IR-induced senescent WI38 cells were treated with 10 μM PL and viable cells were measured at 0, 1, 2, 3, 6, 12, 16, 24, 48 and 72 hours after treatment (FIG. 1D) or the cells were incubated with 10 μM PL for 1, 3, 6, 12, 24, 48 or 72 hours and cell viability was measured at 72 h (FIG. 1E).
(§2) At 72 hours post-treatment cell viability was measured.
(§3) Normal WI38 cells and IR-induced senescent cells were incubated with increasing concentrations of compounds of Formula I and Formula II. At 72 hours post-treatment cell viability was measured and LD50 was calculated.

[2] = test system: IR-induced senescent WI38 cells; test: Cell viability of IR-induced senescent WI38 cells at 72 h (LD50); settings: for LD50 (IR-senescent): IR-induced senescent WI38 cells; for LD50 (IR-senescent) / Ratio (normal/senescent): Table 1; for Ratio (normal/senescent) / Ratio (NSC/SC): ratio of LD50 values; for IC50: Homo sapiens, WI-38, 72 h, read-out: LD50 IR-senescent cells (SC); for Ratio (NSC/SC): Table 2
Method: as §1, §2, §3

[3] = test system: replicative senescent WI38 cells; test: Cell viability of replicative senescent WI38 cells at 72 h (LD50)
Method: as §1

[4] = test system: IR-induced senescent WI38 cells; test: Reactive oxygen species (ROS) measurement after PL treatment; settings: 10 μM PL, at 24 hours
Method: PL selectively increases ROS in senescent WI38 in a time-dependent manner. Normal (FIG. 2A) and IR-induced senescent WI38 cells (FIG. 2B) were incubated with vehicle (Veh), […] H2O2 for 30 min as a positive control, or 10 μM PL. Reactive oxygen species (ROS) was measured at various times (1, 3, 6, 12, 24 hours) after PL treatment and expressed as percent of control. Data are presented as mean±SE of three independent assays.

CC(=O)OC[C@H]1O[C@@H]([S-])[C@H](OC(C)=O)[C@@H](OC(C)=O)[C@@H]1OC(C)=O.CCP(CC)CC.[Au+] [Auranofin, reference compound]
LD50 (normal) [1]: 5.13 µM | LD50 (IR-senescent) [2]: 5.34 µM | Ratio (normal/senescent) [2]: 1.0

CCCCS(=N)(=O)CCC(N)C(=O)O (stereo not drawn) [Buthionine sulfoximine, reference compound]
LD50 (normal) [1]: 2340.19 µM | LD50 (IR-senescent) [2]: 2391.51 µM | Ratio (normal/senescent) [2]: 1.0

CCCCCCCCCC[P+](c1ccccc1)(c1ccccc1)c1ccccc1 [Decyl-triphenylphosphonium, reference compound]
LD50 (normal) [1]: 1.41 µM | LD50 (IR-senescent) [2]: 0.98 µM | Ratio (normal/senescent) [2]: 1.4

CCCOc1c(OC)cc(/C=C/C(=O)N2CCC=CC2=O)cc1OC [GZ-11719-by]
CC50 [1]: 84.7 µM | IC50 [2]: 47.1 µM | Ratio (NSC/SC) [2]: 1.80

COc1cc(/C=C/C(=O)N2CCC=CC2=O)cc(OC)c1OCCN(C)CCOc1c(OC)cc(/C=C/C(=O)N2CCC=CC2=O)cc1OC [GZ-11719]
CC50 [1]: 1.62 µM | IC50 [2]: 0.9 µM | Ratio (NSC/SC) [2]: 1.80

COc1cc(/C=C(\Br)C(=O)N2CCC=CC2=O)c(Br)c(OC)c1OC [GZ-11734]
CC50 [1]: 7.16 µM | IC50 [2]: 1.39 µM | Ratio (NSC/SC) [2]: 5.14

CC(=O)N[C@@H](CS)C(=O)O [NAC, N-Acetyl-Cysteine, reference compound]
effect on PL induced cell death ([2]; pre-treatment 2 hours (NAC 1 mM; Q-VD-OPh 20 μM), then 10 μM PL 72 h): selectively inhibited PL induced cell death

COc1cc(/C=C/C(=O)N2CCC=CC2=O)cc(OC)c1OC [PL, 5,6-dihydro-1-[(2E)-1-oxo-3-(3,4,5-trimethoxyphenyl)-2-propenyl]-2(1H)-pyridinone, reference compound]
effect on cell viability ([1]; PL up to 10 μM, 72 hours): no significant effect | LD50 (normal) [1]: 24.25 µM | effect on number of viable cells ([3]; PL as low as 5 μM, 72 hours): significantly reduced the number of viable cells | LD50 (Replicative) ([3]; replicative senescent WI38 cells, Table 1): 6.35 µM | viable cells over time ([2]; 10 μM PL, from 6 hours on, both treatment scenarios): significant reduction in viable cells | LD50 (IR-senescent) [2]: 7.05 µM | effect on number of viable cells ([2]; PL as low as 5 μM, 72 hours): significantly reduced the number of viable cells | Ratio (normal/senescent) [2]: 3.44-3.82 | ROS production [4]: significantly increased ROS production

COc1cc(/C=C/C(=O)N2CCCCCC2=O)cc(OC)c1OC [XL-11178A]
CC50 [1]: > 40 µM | IC50 [2]: > 40 µM

COc1cc(/C=C/C(=O)N2CCC=CC2=O)cc(OC)c1OCCN(C)C [XL-11194]
CC50 [1]: 10.3 µM | IC50 [2]: 4.02 µM | Ratio (NSC/SC) [2]: 2.56

O=C(C#Cc1ccccc1)N1CCC=CC1=O [XZ 12040]
CC50 [1]: 5.78 µM | IC50 [2]: 2.4 µM | Ratio (NSC/SC) [2]: 2.41

COc1cc(C#CC(=O)N2CCC=CC2=O)cc(OC)c1OC [XZ-12045]
CC50 [1]: 13.9 µM | IC50 [2]: 4.38 µM | Ratio (NSC/SC) [2]: 3.18

O=C1C=CCCN1C(=O)/C=C/c1ccccc1C(F)(F)F [XZ-12047]
CC50 [1]: 21.9 µM | IC50 [2]: 10.8 µM | Ratio (NSC/SC) [2]: 2.03

COc1cc(/C=C(\C#N)C(=O)N2CCC=CC2=O)cc(OC)c1OC [XZ-12052]
CC50 [1]: 80 µM | IC50 [2]: 41 µM | Ratio (NSC/SC) [2]: 1.95

C=C1CCCN(S(=O)(=O)/C=C/c2ccccc2)C1=O [XZ-12107]
CC50 [1]: 24 µM | IC50 [2]: 4.77 µM | Ratio (NSC/SC) [2]: 5.02
